Results: patent publication EP0064487A1, “New substituted 3-(parasubstituted)phenoxy-1-alkylamino-propanol-2-s, as well as process for their preparation, pharmaceutical preparations containing same, and method for treating cardiac failure” (priority 1981, dated 1982)

What was measured:
[1] = test system: contractility of the heart; experiment: Positive inotropic effect (increase in max dP/dt) in reserpine-pretreated, anaesthetized cats, i.v. dosing; format: in vivo; settings: continuous infusion
Protocol: The positive inotropic effect and the cardioselectivity of the compounds were studied in cats with an average weight of 3 kg. The animals were pretreated with reserpine (5 mg/kg i.p.) about 16 hours before experiment. This treatment eliminated the reflex sympathetic control of the heart and the vascular tonus. Following pentobarbital anaesthesia (Mebumal^e, 30 mg/kg i.p.) artificial air respiration was started. The two vagus nerves were cut and the adrenal glands were excluded from the circulation by means of ligatures on the adrenal veins.
Blood pH, pC02 and p02 were kept within the normal ranges throughout the experiments. All recordings were made on a Grass Polygraph. Heart rate, pressure in the left ventricle (LVP), the first derivative of LVP (dP/dt), intra-arterial blood pressure and peripheral resistance were recorded. LVP was recorded via a catheter tip pressure transducer (Millar), which was inserted via the left carotid artery. This.pressure curve was differentiated and max dP/dt was recorded by means of a peak detector. The recording of max dP/dt was linear up to 20 […]. The increase in max dP/dt was used as a measure of the increased contractility of the heart.
The substances were administered intravenously in increasing doses. […]

[2] = test system: inotropic effect (max dF/dt) in the aorta; experiment: Duration of positive inotropic action (decline of max dF/dt in the aorta) in conscious dogs, i.v. dosing; format: in vivo; settings: conscious beagle dogs, intravenous
Protocol: The duration of action of the compounds has been studied in conscious beagle dogs. An electromagnetic flow probe was inplanted on the ascending aorta for determination of the r inotropic effect measured as maximal flow acceleration (max dF/dt) in the aorta. For determination of blood pressure catheters were inplanted in thoracic aorta and .left atrium. Increasing doses of the substances were administered intravenously and the decline of inotropic effect (max dF/dt) was used for determination of duration.

## CC(C)NCC(O)c1ccc(O)c(O)c1 (centres unmarked) [isoprenaline]
[1]
  Half maximal effect: 0.004 µmol/kg/min
[2]
  time for 50% decline of the positive inotropic effect (max dF/dt): less than 1 min
